Laboratory results: patent US20110288086A1, “POLYCYCLIC QUINAZOLINES, PREPARATION THEREOF, AND USE THEREOF” (priority 2010, published 2011)
≈ marks a conversion by molar mass, not a printed value.

Legend:
aurora kinase B = target: T1, aurora kinase B (Homo sapiens, UniProt Q96GD4); assay: Aurora kinase B inhibition in vitro (Invitrogen aurora kinase screening kit PV3174); format: biochemical
T1 construct: purchased Invitrogen PV3174

[1] = system: Jurkat E6-1 human T-cell lymphoma; assay: Tumor cell IC50, CCK-8 kit, Jurkat E6-1; format: cell-based; details: E6-1 cells
Description: (§1) The inhibitory activities of the compounds on tumor cells (IC50) in vitro
(§2) The IC50 (IC50, unit: μg/ml) values of the compounds on Hut78 T-Lymphocytic Leukemia cells, Jurkat E6-1 human T-cell lymphoma, PANC-1 human pancreatic cancer cells, A549 human lung cancer cells, K562 human chronicity marrow leukemic cells, Hep3B2. 1-7 human hepatoma carcinoma cells, MDA-MB-435s human breast carcinoma cells, Colo320 human rectal cancer cells, PC-3 human carcinoma of prostate, and HepG2 human hepatoma carcinoma cells were determined using a CCK-8 kit. Erlotinib hydrochloride was used as the positive control drug.

[2] = system: Hut78 T-Lymphocytic Leukemia cells; assay: Tumor cell IC50, CCK-8 kit, Hut78; format: cell-based; details: Homo sapiens, Hut-78 cells
Description: as §1, §2

[3] = system: Colo320 human rectal cancer cells; assay: Tumor cell IC50, CCK-8 kit, Colo320; format: cell-based; details: COLO 320
Description: as §1, §2

[4] = system: K562 human chronicity marrow leukemic cells; assay: Tumor cell IC50, CCK-8 kit, K562; format: cell-based
Description: as §1, §2

[5] = system: MDA-MB-435s human breast carcinoma cells; assay: Tumor cell IC50, CCK-8 kit, MDA-MB-435s; format: cell-based; details: 435s cells
Description: as §1, §2

[6] = system: Hep3B2. 1-7 human hepatoma carcinoma cells; assay: Tumor cell IC50, CCK-8 kit, Hep3B; format: cell-based
Description: as §1, §2

[7] = system: A549 human lung cancer cells; assay: Tumor cell IC50, CCK-8 kit, A549; format: cell-based
Description: as §1, §2

[8] = system: PANC-1 human pancreatic cancer cells; assay: Tumor cell IC50, CCK-8 kit, PANC-1; format: cell-based; details: PANC-1 cells
Description: as §1, §2

[9] = system: PC-3 human carcinoma of prostate; assay: Tumor cell IC50, CCK-8 kit, PC-3; format: cell-based; details: PC-3 cells
Description: as §1, §2

Acute Toxicity Study = details: in vivo; preliminary screening, Bliss statistical method
Procedure: The acute toxicity experiments were carried out according to the methods disclosed in the book of Modern Pharmacological Methods, edited chiefly by Zhang Jun-Tian.

[10] = system: K562 human chronicity marrow leukemic cells; assay: Tumor cell inhibition ratio, CCK-8 kit, K562; details: K562, read-out: Antiproliferative effect (inhibition ratio) K562
Description: (§3) The inhibitory activities of the compounds on tumor cells in vitro

[11] = system: A549 human lung cancer cells; assay: Tumor cell inhibition ratio, CCK-8 kit, A549; details: A549, read-out: Antiproliferative effect (inhibition ratio) A549
Description: as §3

[12] = system: PC-3 human carcinoma of prostate; assay: Tumor cell inhibition ratio, CCK-8 kit, PC-3; details: read-out: Antiproliferative effect (inhibition ratio) PC-3
Description: as §3

[13] = system: Hut78 T-Lymphocytic Leukemia cells; assay: Tumor cell inhibition ratio, CCK-8 kit, Hut78; details: Homo sapiens, HuT78, read-out: Antiproliferative effect (inhibition ratio) Hut-78
Description: as §3

[14] = system: Hep3B2.1-7 human hepatoma carcinoma cells; assay: Tumor cell inhibition ratio, CCK-8 kit, Hep3B; details: read-out: Antiproliferative effect (inhibition ratio) Hep3B
Description: as §3

[15] = system: PANC-1 human pancreatic cancer cells; assay: Tumor cell inhibition ratio, CCK-8 kit, PANC-1; details: PANC-1, read-out: Antiproliferative effect (inhibition ratio) PANC-1
Description: as §3

[16] = system: Colo320 human rectal cancer cells; assay: Tumor cell inhibition ratio, CCK-8 kit, Colo320; details: COLO 320, read-out: Antiproliferative effect (inhibition ratio) Colo320
Description: as §3

[17] = system: Jurkat E6-1 human T-cell lymphoma; assay: Tumor cell inhibition ratio, CCK-8 kit, Jurkat E6-1; details: Jurkat E6.1, read-out: Antiproliferative effect (inhibition ratio) E6-1
Description: as §3

[18] = system: MDA-MB-435s human breast carcinoma cells; assay: Tumor cell inhibition ratio, CCK-8 kit, MDA-MB-435s; details: read-out: Antiproliferative effect (inhibition ratio) 435s
Description: as §3

EGFR tyrosine kinase = EGFR tyrosine kinase (Homo sapiens, UniProt P00533); assay: EGFR tyrosine kinase inhibition in vitro (Invitrogen EGFR inhibitor screening kit PV3193)
Sequence of EGFR tyrosine kinase (P00533 25-1210): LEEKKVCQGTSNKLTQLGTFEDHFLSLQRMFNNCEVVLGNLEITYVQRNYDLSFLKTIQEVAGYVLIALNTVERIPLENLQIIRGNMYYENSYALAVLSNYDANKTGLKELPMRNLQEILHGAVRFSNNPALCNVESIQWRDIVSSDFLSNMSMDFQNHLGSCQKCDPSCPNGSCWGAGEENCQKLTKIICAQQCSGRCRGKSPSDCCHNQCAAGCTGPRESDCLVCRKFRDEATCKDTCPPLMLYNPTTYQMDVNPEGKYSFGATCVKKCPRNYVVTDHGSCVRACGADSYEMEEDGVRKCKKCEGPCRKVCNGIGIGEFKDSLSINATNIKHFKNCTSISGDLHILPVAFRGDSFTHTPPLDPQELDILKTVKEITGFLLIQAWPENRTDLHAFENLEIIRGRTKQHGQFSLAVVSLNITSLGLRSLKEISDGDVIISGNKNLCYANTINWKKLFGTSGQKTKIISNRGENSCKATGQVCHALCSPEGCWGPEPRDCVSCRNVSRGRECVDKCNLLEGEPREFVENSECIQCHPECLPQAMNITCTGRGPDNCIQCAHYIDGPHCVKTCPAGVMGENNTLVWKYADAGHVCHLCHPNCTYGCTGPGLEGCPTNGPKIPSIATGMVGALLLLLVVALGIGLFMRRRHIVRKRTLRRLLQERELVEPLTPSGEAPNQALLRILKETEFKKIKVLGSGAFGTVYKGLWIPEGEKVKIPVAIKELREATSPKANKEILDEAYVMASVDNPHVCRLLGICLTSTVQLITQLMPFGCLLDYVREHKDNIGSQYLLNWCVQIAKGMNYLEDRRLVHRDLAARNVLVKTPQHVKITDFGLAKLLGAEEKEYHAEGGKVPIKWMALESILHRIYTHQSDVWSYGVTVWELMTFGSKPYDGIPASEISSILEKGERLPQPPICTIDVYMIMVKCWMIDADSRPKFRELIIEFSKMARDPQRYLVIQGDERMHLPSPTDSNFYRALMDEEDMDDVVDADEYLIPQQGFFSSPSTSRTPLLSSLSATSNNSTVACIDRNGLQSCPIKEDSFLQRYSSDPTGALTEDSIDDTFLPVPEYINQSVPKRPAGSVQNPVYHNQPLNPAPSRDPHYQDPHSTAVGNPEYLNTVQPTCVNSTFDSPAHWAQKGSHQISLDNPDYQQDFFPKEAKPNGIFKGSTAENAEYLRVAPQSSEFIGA
Description: The inhibitory activities of EGFR tyrosine kinase in vitro
Erlotinib hydrochloride was used as a positive control drug.

T1 sequence (Q96GD4 whole entry): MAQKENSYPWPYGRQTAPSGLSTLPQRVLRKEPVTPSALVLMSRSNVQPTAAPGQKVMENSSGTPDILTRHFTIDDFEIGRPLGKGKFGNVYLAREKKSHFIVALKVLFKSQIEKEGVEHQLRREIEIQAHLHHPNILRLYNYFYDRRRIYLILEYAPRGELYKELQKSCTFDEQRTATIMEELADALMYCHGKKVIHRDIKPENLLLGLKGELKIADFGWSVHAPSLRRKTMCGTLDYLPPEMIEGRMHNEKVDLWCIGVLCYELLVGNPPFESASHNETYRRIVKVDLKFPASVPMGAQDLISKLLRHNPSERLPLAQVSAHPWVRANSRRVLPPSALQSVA

Compound	The inhibition ratio of the compound on Aurora B(%) (aurora kinase B; 40 μM)	The inhibition ratio of the compound on Aurora B(%) (aurora kinase B; 200 μM)	IC50 [1] [µg/mL]	IC50 [2] [µg/mL]	IC50 [3] [µg/mL]	IC50 [4] [µg/mL]	IC50 [5] [µg/mL]	IC50 [6] [µg/mL]	IC50 [7] [µg/mL]	IC50 [8] [µg/mL]	IC50 [9] [µg/mL]	inhibition at 10 µM [10] [%]	inhibition at 100 µM [10] [%]	inhibition at 10 µM [11] [%]	inhibition at 100 µM [11] [%]	inhibition at 10 µM [12] [%]	inhibition at 100 µM [12] [%]	inhibition at 10 µM [13] [%]	inhibition at 100 µM [13] [%]	inhibition at 10 µM [14] [%]	further results
CS(=O)(=O)CCNCc1ccc(-c2ccc3c(c2)C2=Nc4ccc(OCc5cccc(F)c5)c(Cl)c4CN2C=N3)o1 [Compound V-33, N-((5-(9-chloro-10-(3-fluorobenzyloxy)-8H-quinazolino[4,3-b]quinazoline-2-yl)furan-2-yl)methyl)-2-(methylsulfonyl)ethylamine]	54.6	93.7	15.4 (≈ 25.9 µM)	13.4 (≈ 22.6 µM)	7.83 (≈ 13.2 µM)	62.6 (≈ 105 µM)	10.3 (≈ 17.4 µM)	22.7 (≈ 38.3 µM)	0.05 (≈ 0.0843 µM)	1.97 (≈ 3.32 µM)	40.7 (≈ 68.6 µM)	40.5	86	48.1	86.1	16.5	78.2	61	92.8	51.3	LD50 (Acute Toxicity Study): 2840 mg/kg; inhibition at 100 µM [14]: 86.5%; inhibition at 10 µM [15]: 50.3%; inhibition at 100 µM [15]: 88%; inhibition at 10 µM [16]: 61.6%; inhibition at 100 µM [16]: 96.3%; inhibition at 10 µM [17]: 41.6%; inhibition at 100 µM [17]: 90.8%; inhibition at 10 µM [18]: 62.7%; inhibition at 100 µM [18]: 99.5%; The inhibition ratio of the compound on EGFR(%) (EGFR tyrosine kinase; 40 μM): 64.3%; The inhibition ratio of the compound on EGFR(%) (EGFR tyrosine kinase; 200 μM): 97.9%
C#Cc1ccc2c(c1)N=C1c3cc(OCCOC)c(OCCOC)cc3N=CN1C2 [Compound V-19, 11-ethynyl-2,3-bis(2-methoxyethoxy)-8H-quinazolino[4,3-b]quinazoline]	52.4	95.7	12.5 (≈ 30.7 µM)	47.4 (≈ 117 µM)	10 (≈ 24.7 µM)	31.1 (≈ 76.7 µM)	36.5 (≈ 90.1 µM)	9.32 (≈ 23 µM)	50 (≈ 123 µM)	27.3 (≈ 67.4 µM)	15.3 (≈ 37.8 µM)	45.4	81.1	48.6	90.7	62.2	92.7	33	63.8	53.5	inhibition at 100 µM [14]: 85%; inhibition at 10 µM [15]: 49.7%; inhibition at 100 µM [15]: 85.9%; inhibition at 10 µM [16]: 37%; inhibition at 100 µM [16]: 89.6%; inhibition at 10 µM [17]: 55.2%; inhibition at 100 µM [17]: 91.1%; inhibition at 10 µM [18]: 55.8%; inhibition at 100 µM [18]: 91.6%; The inhibition ratio of the compound on EGFR(%) (EGFR tyrosine kinase; 40 μM): 53.4%; The inhibition ratio of the compound on EGFR(%) (EGFR tyrosine kinase; 200 μM): 95.7%
Br.COCCOc1cc2c(cc1OCCOC)C1=Nc3cccc(N)c3CN1C=N2 [Compound V-6, 9-amino-2,3-bis(2-methoxyethoxy)-8H-quinazolino[4,3-b]quinazoline hydrobromide trihydrate]	48.5	93.8	30.5	58.8	29.8	46.4	33.5	15.6	3.68	16.8	33	64.1	82.8	63	97.3	53.4	84.4	69	91.9	51.3	inhibition at 100 µM [14]: 84.7%; inhibition at 10 µM [15]: 64.2%; inhibition at 100 µM [15]: 98.6%; inhibition at 10 µM [16]: 73.5%; inhibition at 100 µM [16]: 99.2%; inhibition at 10 µM [17]: 61.1%; inhibition at 100 µM [17]: 95.3%; inhibition at 10 µM [18]: 50.4%; inhibition at 100 µM [18]: 87%; The inhibition ratio of the compound on EGFR(%) (EGFR tyrosine kinase; 40 μM): 55.2%; The inhibition ratio of the compound on EGFR(%) (EGFR tyrosine kinase; 200 μM): 93.8%
COc1cc2c(cc1OCCCN1CCCC1)C1=Nc3cccc(Cl)c3CN1C=N2 [Compound V-24, 9-chloro-3-methoxy-2-(3-(pyrrolidine-1-yl)propoxy)-8H-quinazolino[4,3-b]quinazoline]	52.5	90.3	9.86 (≈ 23.2 µM)	2.14 (≈ 5.04 µM)	4.76 (≈ 11.2 µM)	10.3 (≈ 24.3 µM)	53.4 (≈ 126 µM)	43.1 (≈ 101 µM)	23.3 (≈ 54.8 µM)	1.94 (≈ 4.57 µM)	3.41 (≈ 8.02 µM)	53.6	93.8	50.7	98.2	53.5	98.9	44.3	99.6	60.3	inhibition at 100 µM [14]: 94.6%; inhibition at 10 µM [15]: 42.4%; inhibition at 100 µM [15]: 99.9%; inhibition at 10 µM [16]: 52.7%; inhibition at 100 µM [16]: 99.4%; inhibition at 10 µM [17]: 46.6%; inhibition at 100 µM [17]: 87.3%; inhibition at 10 µM [18]: 48.9%; inhibition at 100 µM [18]: 66.2%; The inhibition ratio of the compound on EGFR(%) (EGFR tyrosine kinase; 40 μM): 53.1%; The inhibition ratio of the compound on EGFR(%) (EGFR tyrosine kinase; 200 μM): 94.3%
